Assay results published in US4735943A, “Eburnamonine oxime derivatives, salts thereof, and pharmaceutical agents containing the same” (Sanwa Kagaku Kenkyusho Co., Ltd., priority 1984, dated 1988).

Experiments:
[1] = test system: brain of rats with an essential hypertension (SHR); test: Cerebral Metabolic Activation (cerebral ischemia by ligation of both common carotid arteries); format: in vivo, male); details: 10 mg/kg oral 1 h after ligation, measured 5 h after ligation
Procedure: (Cerebral Metabolic Activation) According to a known method [Fujishima et al, "Rinshou-to-Kenkyu (The Clinics and Studies)" 51, 3532, 1974], both common carotid arteries of rats with an essential hypertension (SHR, male, 250-350 g, 4 to 5 animals/group) were ligated to cause a cerebral ischemia. After one hour from the ligation, each of testing compounds was orally administered in an amount of 10 mg/kg and various parameters in brain were measured at the time having lapsed 5 hours from the ligation.

d,d-mice = test: Cerebral Function Protection (recovery after rod dropped on vertex); format: in vivo, male; details: 10 mg/kg oral, 30 min before, negative values given as "not effective"
Procedure: (Cerebral Function Protection) To each of male d,d-mice (16-24 g, 6 to 24 animals/group), each of testing compounds was orally administered in an amount of 10 mg/kg. After 30 minutes from the administration, a cylindrical rod made of bakelite (diameter: 1 cm, weight: 36 g) was free dropped with a level height of 40 cm on a vertex of the mouse to hypnotize the same, in accordance with a method disclosed by […] et al ["Tyaku-no-Ayumi (The Progress in Medicines)", 104 (4), 253, 1978]. Observations were continued until a recovering reflex from the lethargy and a spontaneous motion appear to determine a reduction ratio of time period on such behavior appearances.

[2] = test system: blood flow in vertebral artery; test: Cerebral Blood Flow Increase (blood flow in vertebral artery, electromagnetic rheometer); format: in vivo; details: anesthetized mongrel dogs, 1.0 mg/dog into vertebral artery
Procedure: (Cerebral Blood Flow Increase) Male and female mongrel dogs anesthetized with nembutal (sodium pentobarbital) were employed as subject and a blood flow in vertebral artery of those animals were measured with use of an electromagnetic rheometer. Each of testing compounds was administered to vertebral artery in a ratio of 1.0 mg/dog to determine a change in blood flow in the vertebral artery.

[3] = test system: ADP aggregation of platelets; test: Depression on Blood Platelet Aggregation, ADP; format: cell-based, Wister male rat; details: in vitro, rat platelet plasma, read-out: depression Ratio to ADP; for inhibition at 10 µg/mL: final conc. 10 μg/ml, negative values given as "not effective"
Excerpt: (§1) (Depression on Blood Platelet Aggregation) With use of a blood-plasma with excess platelets (obtained from a Wister male rat, about 250 g), a depressing effect of each testing compound to ADP and collagen aggregations was studied in vitro (3 to 5 samples/group).Results are shown in following Table 4.

[4] = test system: erythrocyte deformability; test: Acceleration on Erythrocyte Deformability (filtration-pressure method); format: in vivo, Wister male rats; details: rats, 10 mg/kg oral, blood 1 h after administration, 0.1% erythrocyte suspension
Procedure: (Acceleration on Erythrocyte Deformability) Each of testing compounds was orally administered to an amount of 10 mg/kg to Wister male rats (about 250 g, 5 animals/group). After one hour from the administration, blood sample was collected to prepare 0.1% erythrocyte suspension. An action of the compound to an erythrocyte deformability was studied in accordance with a filtration-pressure method to obtain results as shown in following Table 5.

in vivo = details: mouse, male mice, oral, mortality after 72 hours
[5] = test system: collagen aggregation of platelets; test: Depression on Blood Platelet Aggregation, collagen; format: cell-based, Wister male rat; details: in vitro, rat platelet plasma, read-out: depression Ratio to Collagen; for inhibition at 10 µg/mL: final conc. 10 μg/ml
Excerpt: as §1

SMILES | Amount of ATP in brain [1] [µmol/g] | Amount of Glucose in brain [1] [nmol/g] | Amount of Lactic acid in brain [1] [µmol/g] | Reduction ratio, time to appear spontaneous motion (d,d-mice) [%] | Reduction ratio, time to recover sit-up reflex (d,d-mice) [%] | Increase in Blood Flow [2] [%] | inhibition at 2 µg/mL ([3]; final conc. 2 μg/ml) [%] | Reduction Rate in Filtering Pressure [4] [%] | LD50 at 72 h (in vivo) [mg/kg] | inhibition at 2 µg/mL ([5]; final conc. 2 μg/ml) [%] | inhibition at 10 µg/mL [3] [%] | inhibition at 10 µg/mL [5] [%]
CCN(CC)CCON=C1C[C@]2(CC)CCCN3CCc4c(n1c1ccccc41)[C@@H]32 [Example 2, (3α,16α)-eburnamenin-14(15H)-one O-[2-(N,N-diethylamino)ethyl]oxime] | 0.36 | 1030 | 4.62 | 48.7 | 54.3 | 269.5 | 5.7 | 6.0 | 611 | 73.8 | – | –
CC[C@]12CCCN3CCc4c(n(c5ccccc45)C(=NOCC(O)CN4CCN(c5ccccc5OC)CC4)C1)[C@@H]32 (stereo partly drawn) [Example 6, (3α,16α)-eburnamenin-14(15H)-one O-{2-hydroxy-3-[4-(2-methoxyphenyl)-1-piperazinyl]propyl}oxime] | 0.32 | 1010 | 4.95 | 47.2 | 23.5 | 357.7 | – | 35.1 | 560 | – | 6.3 | 9.5
CC[C@]12CCCN3CCc4c(n(c5ccccc45)C(=NOCCN(C)C)C1)[C@@H]32 [Example 3, (3α,16α)-eburnamenin-14(15H)-one O-[2-(N,N-dimethylamino)ethyl]oxime] | 0.18 | 740 | 7.01 | -11.3 | -33.0 | 247.3 | – | 10.2 | 700 | – | 5 | 3.2
CC[C@]12CCCN3CCc4c(n(c5ccccc45)C(=NO)C1)[C@@H]32 [Reference Example, (3α,16α)-eburnamenin-14(15H)-one oxime] | 0.20 | 592 | 7.10 | -5.3 | -12.4 | 144.9 | – | 8.3 | 510 | – | -1.2 | 5.4
CCOC(=O)C1=C[C@]2(CC)CCCN3CCc4c(n1c1ccccc41)[C@@H]32 [vinpocetine, reference compound] | 0.36 | 1120 | 7.00 | – | – | 261.4 | – | 46.3 | – | – | -0.2 | 4
CC[C@]12CCCN3CCc4c(n(c5ccccc45)C(=NOCCN4CCN(c5ccccc5OC)CC4)C1)[C@@H]32 [Example 5, (3α,16α)-eburnamenin 14(15H)-one O-{2-[4-(2-methoxyphenyl)-1-piperazinyl]ethyl}oxime] | 0.28 | 802 | 5.50 | 6.9 | 0.4 | 179.3 | – | 13.2 | 660 | – | 5.5 | 9.3
CC[C@]12CCCN3CCc4c(n(c5ccccc45)C(=NOCCN4CCCC4)C1)[C@@H]32 [Example 4, (3α,16α)-eburnamenin-14(15H)-one O-[2-(1-pyrrolidinyl)ethyl]oxime] | 0.25 | 896 | 6.34 | -71.6 | -96.1 | 260.6 | – | 9.3 | 532 | – | -10 | 4.4
